Columns and labels:
Assay in all cases: GRmax, 72 h; higher = less effect;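 further: breast cell lines in 384-well plates, nine doses across a 10^4 range, Dye Drop imaging of viable cells vs DMSO and time-zero plates, GR 0 means no net growth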
BT549 = system: BT549
EVSAT = system: EVSAT
HCC1143 = system: HCC1143
HCC1395 = system: HCC1395
HCC1419 = system: HCC1419
HCC70 = system: HCC70
MCF10A = system: MCF10A
MDAMB231 = system: MDAMB231
PDX1258 = system: PDX1258
SUM1315 = system: SUM1315

| SMILES | GRmax, 72 h (BT549) | GRmax, 72 h (EVSAT) | GRmax, 72 h (HCC1143) | GRmax, 72 h (HCC1395) | GRmax, 72 h (HCC1419) | GRmax, 72 h (HCC70) | GRmax, 72 h (MCF10A) | GRmax, 72 h (MDAMB231) | GRmax, 72 h (PDX1258) | GRmax, 72 h (SUM1315) |
| --- | --- | --- | --- | --- | --- | --- | --- | --- | --- | --- |
| CC(C)n1nc(-c2ccc3oc(N)nc3c2)c2c(N)ncnc21 [INK128/MLN0128] (max 3.162 µM) | 0.0717 GR | -0.31 GR | 0.0314 GR | -0.0258 GR | -0.147 GR | -0.162 GR | 0.172 GR | 0.101 GR | -0.138 GR | 0.0256 GR |
| Nc1cc(C(F)(F)F)c(-c2cc(N3CCOCC3)nc(N3CCOCC3)n2)cn1 [Buparlisib/NVP-BKM120] (max 10 µM) | -0.272 GR | -0.499 GR | -0.436 GR | -0.506 GR | -0.496 GR | -0.727 GR | -0.16 GR | -0.235 GR | -0.392 GR | -0.369 GR |
| COc1cc2nccc(Oc3ccc(NC(=O)C4(C(=O)Nc5ccc(F)cc5)CC4)cc3)c2cc1OC [Cabozantinib] (max 10 µM) | 0.533 GR | 0.654 GR | 0.512 GR | 0.114 GR | 0.622 GR | -0.0911 GR | 0.843 GR | 0.0749 GR | 0.28 GR | 0.11 GR |
| Cc1cc(C(C)Nc2ccccc2)c2nc(N3CCOCC3)cc(=O)n2c1 (stereo not given) [TGX221] (max 10 µM) | 0.81 GR | 0.331 GR | 0.918 GR | 0.458 GR | 0.794 GR | 0.0049 GR | 0.951 GR | 0.851 GR | 0.997 GR | 0.705 GR |
| CN(C)C/C=C/C(=O)Nc1ccc(C(=O)N2CCC[C@@H](Nc3ncc(Cl)c(-c4c[nH]c5ccccc45)n3)C2)cc1 [THZ531] (max 1 µM) | -0.349 GR | 0.0226 GR | -0.23 GR | -0.587 GR | -0.294 GR | -0.933 GR | -0.625 GR | -0.276 GR | -0.575 GR | -0.602 GR |
| CCC(=O)Nc1ccc(C(=O)Nc2ccc(Nc3ncc4c(n3)N(C)c3ccc(C)cc3C(=O)N4C)cc2)cc1 [FMF-03-145-1] | -0.0339 GR | -0.139 GR | 0.09 GR | -0.151 GR | 0.387 GR | -0.317 GR | -0.0249 GR | -0.0038 GR | -0.267 GR | -0.274 GR |
| CN(C)C/C=C/C(=O)Nc1ccc(O[C@@H]2CCC[C@@H](Nc3ncc(Cl)c(-c4c[nH]c5ccccc45)n3)C2)cc1 [BSJ-01-175] (max 10 µM) | -0.593 GR | -0.512 GR | -0.449 GR | -0.862 GR | -0.601 GR | -0.884 GR | -0.566 GR | -0.562 GR | -0.914 GR | -0.864 GR |
| CN1CCN(C(=O)c2ccc3cc(CCNc4ncnc5ccc(C#N)cc45)ccc3c2)CC1 [senexin b] (max 10 µM) | 0.675 GR | 0.642 GR | 0.452 GR | 0.307 GR | 0.445 GR | 0.458 GR | 0.851 GR | 0.892 GR | 0.603 GR | 0.656 GR |
| CC(=O)Nc1cccc(-n2c(=O)n(C3CC3)c(=O)c3c(Nc4ccc(I)cc4F)n(C)c(=O)c(C)c32)c1 (max 1 µM) | 0.598 GR | 0.939 GR | -0.0225 GR | 0.45 GR | 0.426 GR | -0.0393 GR | 0.225 GR | -0.178 GR | 0.85 GR | 0.133 GR |
| CN(C)C/C=C/C(=O)Nc1ccc(C(=O)Nc2cccc(Nc3ncc(Cl)c(-c4c[nH]c5ccccc45)n3)c2)cc1 [THZ1] (max 1 µM) | -0.312 GR | -0.245 GR | -0.318 GR | -0.784 GR | -0.386 GR | -0.944 GR | -0.525 GR | -0.505 GR | -0.716 GR | -0.906 GR |
| CCNC(=O)c1noc(-c2cc(C(C)C)c(O)cc2O)c1-c1ccc(CN2CCOCC2)cc1 [Luminespib/NVP-AUY922] (max 1 µM) | -0.106 GR | -0.29 GR | -0.192 GR | -0.152 GR | -0.297 GR | -0.583 GR | -0.172 GR | -0.178 GR | -0.29 GR | -0.081 GR |
| C[C@@H]1COCCN1c1cc(C2([S@](C)(=N)=O)CC2)nc(-c2cc[nH]c3nccc2-3)n1 [AZD6738] (max 10 µM) | -0.099 GR | 0.742 GR | -0.0627 GR | -0.284 GR | 0.367 GR | -0.532 GR | 0.442 GR | 0.354 GR | -0.295 GR | -0.169 GR |
| C=CC(=O)Nc1ccc(C(=O)Nc2[nH]nc3c2CN(C(=O)N[C@H](CN(C)C)c2ccccc2)C3(C)C)cc1 [YKL-5-124] (max 10 µM) | -0.58 GR | -0.401 GR | -0.0844 GR | -0.267 GR | -0.411 GR | -0.835 GR | -0.162 GR | -0.19 GR | -0.587 GR | -0.406 GR |
| CCCCOc1c(C(=O)c2c(F)cc(C)cc2F)c[nH]c2nncc1-2 (max 10 µM) | -0.149 GR | 0.279 GR | -0.0529 GR | -0.214 GR | 0.4 GR | -0.164 GR | 0.0637 GR | 0.227 GR | -0.232 GR | -0.296 GR |
| CC(=O)O[C@H]1C(=O)[C@@]2(C)[C@H]([C@H](OC(=O)c3ccccc3)[C@]3(O)C[C@H](OC(=O)[C@H](O)[C@@H](NC(=O)c4ccccc4)c4ccccc4)C(C)=C1C3(C)C)[C@]1(OC(C)=O)CO[C@@H]1C[C@@H]2O [Paclitaxel] (max 1 µM) | -0.207 GR | -0.271 GR | -0.335 GR | -0.458 GR | 0.214 GR | -0.506 GR | -0.126 GR | -0.12 GR | -0.0818 GR | -0.326 GR |
| CCN1CCN(Cc2ccc(Nc3ncc(F)c(-c4cc(F)c5nc(C)n(C(C)C)c5c4)n3)nc2)CC1 (max 10 µM) | 0.0333 GR | -0.545 GR | -0.0787 GR | -0.52 GR | 0.228 GR | -0.826 GR | 0.151 GR | -0.487 GR | -0.331 GR | -0.144 GR |
| CN(C)C(=O)c1cc2cnc(Nc3ccc(N4CCNCC4)cn3)nc2n1C1CCCC1 [LEE011/Ribociclib] (max 10 µM) | 0.97 GR | 0.616 GR | 0.298 GR | 0.403 GR | 0.547 GR | 1.04 GR | 0.434 GR | 0.204 GR | 1.08 GR | 0.444 GR |
| Cc1nc(Nc2ncc(C(=O)Nc3c(C)cccc3Cl)s2)cc(N2CCN(CCO)CC2)n1 [Dasatinib] (max 10 µM) | 0.37 GR | 0.171 GR | 0.257 GR | -0.337 GR | -0.196 GR | -0.579 GR | -0.0146 GR | -0.126 GR | -0.134 GR | -0.237 GR |
